Measurements from article PMC10108266, “Pharmacokinetic characteristics of golidocitinib, a highly selective JAK1 inhibitor, in healthy adult participants” (Frontiers in Immunology, 2023).

Experiments:
[1] = Safety (TEAEs), JACKPOT2 food effect cohort; type: in vivo, human
Source text: Safety assessments included monitoring of adverse events/serious adverse events, clinical safety laboratory tests (clinical chemistry, hematology, coagulation, and urinalysis tests), 12-lead ECG, vital signs (blood pressure, pulse rate, and respiratory rate), and pulmonary function. All adverse events were coded using the Medical Dictionary for Regulatory Activities (MedDRA), version 22.0. The CTCAE 5.0 was used to define the intensity of AEs.

[2] = Clearance pathways (available data); type: in vivo, human
[3] = In vitro binding to human plasma; type: in vitro ADME
[4] = One-month toxicology study in rat; conditions: in vivo
Safety (TEAEs), JACKPOT3 = type: in vivo, human; conditions: n = 6
Source text: The safety monitoring for both JACKPOT2 and JACKPOT3 was similar, included monitoring of adverse events/serious adverse events, clinical safety laboratory tests (clinical chemistry, hematology, coagulation, and urinalysis tests), 12-lead ECG, vital signs (blood pressure, pulse rate, and respiratory rate), and pulmonary function.

## COc1nn(C)cc1Nc1nccc(-c2c[nH]c3c(NC(=O)[C@@H](C)N4CCN(C)CC4)cccc23)n1 [golidocitinib, (2R)-N-[3-[2-[(3-Methoxy-1-methyl-pyrazol-4-yl)amino]pyrimidin-4-yl]-1H-indol-7-yl]-2-(4-methylpiperazin-1-yl)propenamide]
[1]; 50 mg (Fasted), n = 12
  Alanine Aminotransferase Increased: 1 (8.3%) n (%)
  Anemia: 0 n (%)
  Aspartate Aminotransferase Increased: 0 n (%)
  Blood Lactate Dehydrogenase Increased: 0 n (%)
  Blood and Lymphatic System Disorders: 0 n (%)
  Cardiac Disorders: 1 (8.3%) n (%)
  Cough: 0 n (%)
  Extrasystoles: 1 (8.3%) n (%)
  Headache: 0 n (%)
  Investigations: 2 (16.7%) n (%)
  Lipase Increased: 1 (8.3%) n (%)
  Nervous System Disorders: 0 n (%)
  Respiratory, Thoracic and Mediastinal Disorders: 0 n (%)
  Rhinorrhea: 0 n (%)
  Subjects with at least one TEAE: 3 (25.0%) n (%)
[1]; 50 mg (Fed), n = 11
  Alanine Aminotransferase Increased: 3 (27.3%) n (%)
  Anemia: 1 (9.1%) n (%)
  Aspartate Aminotransferase Increased: 2 (18.2%) n (%)
  Blood Lactate Dehydrogenase Increased: 1 (9.1%) n (%)
  Blood and Lymphatic System Disorders: 1 (9.1%) n (%)
  Cardiac Disorders: 0 n (%)
  Cough: 1 (9.1%) n (%)
  Extrasystoles: 0 n (%)
  Headache: 1 (9.1%) n (%)
  Investigations: 4 (36.4%) n (%)
  Lipase Increased: 1 (9.1%) n (%)
  Nervous System Disorders: 1 (9.1%) n (%)
  Respiratory, Thoracic and Mediastinal Disorders: 2 (18.2%) n (%)
  Rhinorrhea: 2 (18.2%) n (%)
  Subjects with at least one TEAE: 7 (63.6%) n (%)
[1]; 50 mg, fasted state, AE mild, resolved within 2 hours without treatment
  discontinuation due to AE: one subject was discontinued due to an AE of trigeminy
[2]
  hepatic clearance, share of clearance: 70-80%
  renal excretion, share of clearance: 20-30%
[3]; human plasma of Caucasian and Chinese, in vitro
  bound to human plasma: ~ 63%
[3]; human, plasma, read-out: free fraction in plasma
  fraction unbound: 0.373
[4]; body surface area (BSA) conversion, read-out: Human Equivalent Dose (HED) of the NOAEL
  Human equivalent dose of the NOAEL at 1 month: 0.972 mg/kg
[4]; most sensitive species (rat), one-month toxicology study, read-out: No Observed Adverse Effect Level (NOAEL)
  NOAEL at 1 month: 6 mg/kg
Safety (TEAEs), JACKPOT3; 25 mg
  ALT Increased: 0 n (%)
  AST Increased: 0 n (%)
  Abdominal discomfort: 1 (16.7%) n (%)
  Blood and Lymphatic System Disorders: 1 (16.7%) n (%)
  Blood bilirubin increased: 0 n (%)
  Blood cholesterol increased: 0 n (%)
  C-reactive protein increased: 1 (16.7%) n (%)
  Diarrhea: 1 (16.7%) n (%)
  ECG QT prolonged: 0 n (%)
  Epistaxis: 0 n (%)
  Gastrointestinal disorders: 2 (33.3%) n (%)
  Glucose urine present: 0 n (%)
  Hemoglobin decreased: 0 n (%)
  Hypertriglyceridemia: 0 n (%)
  Injury, poisoning and procedural complications: 1 (16.7%) n (%)
  Investigations: 2 (33.3%) n (%)
  LDH increased: 0 n (%)
  LDL increased: 0 n (%)
  Leukocytosis: 1 (16.7%) n (%)
  Limb injury: 1 (16.7%) n (%)
  Metabolism and nutrition disorders: 0 n (%)
  Musculoskeletal and connective tissue disorders: 0 n (%)
  Musculoskeletal pain: 0 n (%)
  Musculoskeletal stiffness: 0 n (%)
  Neutrophil count decreased: 1 (16.7%) n (%)
  Productive cough: 1 (16.7%) n (%)
  Respiratory, Thoracic and Mediastinal Disorders: 1 (16.7%) n (%)
  Rhinorrhea: 0 n (%)
  Subjects with at least one TEAE: 4 (66.7%) n (%)
  Wound: 0 n (%)
Safety (TEAEs), JACKPOT3; 50 mg
  ALT Increased: 1 (16.7%) n (%)
  AST Increased: 2 (33.3%) n (%)
  Abdominal discomfort: 0 n (%)
  Blood and Lymphatic System Disorders: 0 n (%)
  Blood bilirubin increased: 1 (16.7%) n (%)
  Blood cholesterol increased: 0 n (%)
  C-reactive protein increased: 0 n (%)
  Diarrhea: 0 n (%)
  ECG QT prolonged: 0 n (%)
  Epistaxis: 0 n (%)
  Gastrointestinal disorders: 0 n (%)
  Glucose urine present: 0 n (%)
  Hemoglobin decreased: 0 n (%)
  Hypertriglyceridemia: 1 (16.7%) n (%)
  Injury, poisoning and procedural complications: 0 n (%)
  Investigations: 3 (50.0%) n (%)
  LDH increased: 1 (16.7%) n (%)
  LDL increased: 1 (16.7%) n (%)
  Leukocytosis: 0 n (%)
  Limb injury: 0 n (%)
  Metabolism and nutrition disorders: 1 (16.7%) n (%)
  Musculoskeletal and connective tissue disorders: 0 n (%)
  Musculoskeletal pain: 0 n (%)
  Musculoskeletal stiffness: 0 n (%)
  Neutrophil count decreased: 0 n (%)
  Productive cough: 0 n (%)
  Respiratory, Thoracic and Mediastinal Disorders: 0 n (%)
  Rhinorrhea: 0 n (%)
  Subjects with at least one TEAE: 3 (50.0%) n (%)
  Wound: 0 n (%)
Safety (TEAEs), JACKPOT3; 100 mg
  ALT Increased: 1 (16.7%) n (%)
  AST Increased: 0 n (%)
  Abdominal discomfort: 0 n (%)
  Blood and Lymphatic System Disorders: 0 n (%)
  Blood bilirubin increased: 0 n (%)
  Blood cholesterol increased: 0 n (%)
  C-reactive protein increased: 1 (16.7%) n (%)
  Diarrhea: 0 n (%)
  ECG QT prolonged: 0 n (%)
  Epistaxis: 1 (16.7%) n (%)
  Gastrointestinal disorders: 0 n (%)
  Glucose urine present: 0 n (%)
  Hemoglobin decreased: 0 n (%)
  Hypertriglyceridemia: 2 (33.3%) n (%)
  Injury, poisoning and procedural complications: 0 n (%)
  Investigations: 2 (33.3%) n (%)
  LDH increased: 0 n (%)
  LDL increased: 0 n (%)
  Leukocytosis: 0 n (%)
  Limb injury: 0 n (%)
  Metabolism and nutrition disorders: 2 (33.3%) n (%)
  Musculoskeletal and connective tissue disorders: 1 (16.7%) n (%)
  Musculoskeletal pain: 0 n (%)
  Musculoskeletal stiffness: 1 (16.7%) n (%)
  Neutrophil count decreased: 0 n (%)
  Productive cough: 0 n (%)
  Respiratory, Thoracic and Mediastinal Disorders: 1 (16.7%) n (%)
  Rhinorrhea: 0 n (%)
  Subjects with at least one TEAE: 4 (66.7%) n (%)
  Wound: 0 n (%)
Safety (TEAEs), JACKPOT3; 150 mg
  ALT Increased: 0 n (%)
  AST Increased: 0 n (%)
  Abdominal discomfort: 0 n (%)
  Blood and Lymphatic System Disorders: 0 n (%)
  Blood bilirubin increased: 2 (33.3%) n (%)
  Blood cholesterol increased: 1 (16.7%) n (%)
  C-reactive protein increased: 1 (16.7%) n (%)
  Diarrhea: 1 (16.7%) n (%)
  ECG QT prolonged: 1 (16.7%) n (%)
  Epistaxis: 0 n (%)
  Gastrointestinal disorders: 1 (16.7%) n (%)
  Glucose urine present: 1 (16.7%) n (%)
  Hemoglobin decreased: 1 (16.7%) n (%)
  Hypertriglyceridemia: 2 (33.3%) n (%)
  Injury, poisoning and procedural complications: 1 (16.7%) n (%)
  Investigations: 4 (66.7%) n (%)
  LDH increased: 0 n (%)
  LDL increased: 1 (16.7%) n (%)
  Leukocytosis: 0 n (%)
  Limb injury: 0 n (%)
  Metabolism and nutrition disorders: 2 (33.3%) n (%)
  Musculoskeletal and connective tissue disorders: 1 (16.7%) n (%)
  Musculoskeletal pain: 1 (16.7%) n (%)
  Musculoskeletal stiffness: 0 n (%)
  Neutrophil count decreased: 2 (33.3%) n (%)
  Productive cough: 0 n (%)
  Respiratory, Thoracic and Mediastinal Disorders: 1 (16.7%) n (%)
  Rhinorrhea: 1 (16.7%) n (%)
  Subjects with at least one TEAE: 6 (100%) n (%)
  Wound: 1 (16.7%) n (%)
